Data from ChEMBL document CHEMBL4043288, “( S)-2-Amino-3-(5-methyl-3-hydroxyisoxazol-4-yl)propanoic Acid (AMPA) and Kainate Receptor Ligands: Further Exploration of Bioisosteric Replacements and Structural and Biological Investigation” (J Med Chem, 2018).
The source made the active and inactive calls. No cut-off for these calls is given here.

What was measured:
[1] = target: Glutamate receptor 2 (Rattus norvegicus, UniProt P19491); assay: Displacement of [3H]AMPA from recombinant homomeric rat GluA2 receptor expressed in baculovirus infected Sf9 insect cell membranes
Sequence of Glutamate receptor 2 (P19491 whole entry): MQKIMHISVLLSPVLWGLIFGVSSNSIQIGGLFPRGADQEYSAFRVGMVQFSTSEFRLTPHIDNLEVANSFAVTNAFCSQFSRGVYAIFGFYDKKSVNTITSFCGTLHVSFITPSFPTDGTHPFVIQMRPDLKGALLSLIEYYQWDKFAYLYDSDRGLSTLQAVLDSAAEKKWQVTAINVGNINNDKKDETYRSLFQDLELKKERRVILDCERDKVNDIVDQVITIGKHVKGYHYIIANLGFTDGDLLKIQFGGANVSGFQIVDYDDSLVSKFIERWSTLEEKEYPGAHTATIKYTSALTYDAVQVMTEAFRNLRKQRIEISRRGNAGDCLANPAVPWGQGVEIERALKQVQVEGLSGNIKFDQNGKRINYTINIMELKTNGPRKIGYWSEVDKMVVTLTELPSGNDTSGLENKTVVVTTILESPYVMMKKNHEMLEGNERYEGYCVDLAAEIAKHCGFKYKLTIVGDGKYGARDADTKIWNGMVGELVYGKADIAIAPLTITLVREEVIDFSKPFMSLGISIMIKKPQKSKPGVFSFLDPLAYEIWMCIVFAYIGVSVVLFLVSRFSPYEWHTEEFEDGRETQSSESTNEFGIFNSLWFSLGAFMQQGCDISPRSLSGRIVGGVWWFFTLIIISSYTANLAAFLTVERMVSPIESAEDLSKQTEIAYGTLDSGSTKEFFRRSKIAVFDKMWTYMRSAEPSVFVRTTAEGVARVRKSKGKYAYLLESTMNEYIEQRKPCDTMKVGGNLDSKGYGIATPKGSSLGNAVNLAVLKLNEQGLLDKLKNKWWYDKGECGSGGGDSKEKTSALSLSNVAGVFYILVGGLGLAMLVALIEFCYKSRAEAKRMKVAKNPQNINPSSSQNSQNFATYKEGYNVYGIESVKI

[2] = species on record: Rattus norvegicus; assay: Selectivity ratio of Ki for recombinant homomeric rat GluK3 expressed in Sf9 insect cells to Ki for recombinant homomeric rat GluK1 expressed in Sf9 insect cells
[3] = target: Glutamate receptor ionotropic, kainate 1 (Rattus norvegicus, UniProt P22756); assay: Displacement of [3H]SYM2081 from recombinant homomeric rat GluK1 receptor expressed in baculovirus infected Sf9 insect cell membranes
Sequence of Glutamate receptor ionotropic, kainate 1 (P22756 whole entry): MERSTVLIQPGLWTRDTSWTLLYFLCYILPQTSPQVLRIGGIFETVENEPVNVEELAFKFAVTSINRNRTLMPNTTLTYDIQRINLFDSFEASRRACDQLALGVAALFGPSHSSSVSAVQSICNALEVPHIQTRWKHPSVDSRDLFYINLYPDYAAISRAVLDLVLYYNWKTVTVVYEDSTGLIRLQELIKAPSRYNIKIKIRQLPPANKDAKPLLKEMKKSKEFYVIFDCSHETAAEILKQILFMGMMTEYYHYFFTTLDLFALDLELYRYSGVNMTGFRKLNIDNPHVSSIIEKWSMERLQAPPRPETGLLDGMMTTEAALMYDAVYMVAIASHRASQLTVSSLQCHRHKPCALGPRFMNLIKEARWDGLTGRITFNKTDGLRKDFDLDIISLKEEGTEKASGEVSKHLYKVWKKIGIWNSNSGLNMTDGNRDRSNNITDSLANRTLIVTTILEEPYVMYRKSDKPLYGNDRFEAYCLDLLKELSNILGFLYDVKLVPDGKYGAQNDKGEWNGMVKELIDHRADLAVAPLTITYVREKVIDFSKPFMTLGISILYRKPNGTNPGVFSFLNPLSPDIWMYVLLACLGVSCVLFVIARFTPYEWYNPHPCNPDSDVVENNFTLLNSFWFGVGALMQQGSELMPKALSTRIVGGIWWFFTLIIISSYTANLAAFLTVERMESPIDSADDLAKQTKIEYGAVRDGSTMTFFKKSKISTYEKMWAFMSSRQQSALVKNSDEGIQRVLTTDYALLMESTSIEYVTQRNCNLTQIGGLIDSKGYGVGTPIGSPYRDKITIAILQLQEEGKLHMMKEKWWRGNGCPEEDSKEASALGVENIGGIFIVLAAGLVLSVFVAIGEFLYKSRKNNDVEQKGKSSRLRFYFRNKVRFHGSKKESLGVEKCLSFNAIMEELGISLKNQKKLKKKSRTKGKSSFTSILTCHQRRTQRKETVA

[4] = target: Glutamate receptor ionotropic, kainate 2 (Rattus norvegicus, UniProt P42260); assay: Displacement of [3H]SYM2081 from recombinant homomeric rat GluK2 receptor expressed in baculovirus infected Sf9 insect cell membranes
Sequence of Glutamate receptor ionotropic, kainate 2 (P42260 whole entry): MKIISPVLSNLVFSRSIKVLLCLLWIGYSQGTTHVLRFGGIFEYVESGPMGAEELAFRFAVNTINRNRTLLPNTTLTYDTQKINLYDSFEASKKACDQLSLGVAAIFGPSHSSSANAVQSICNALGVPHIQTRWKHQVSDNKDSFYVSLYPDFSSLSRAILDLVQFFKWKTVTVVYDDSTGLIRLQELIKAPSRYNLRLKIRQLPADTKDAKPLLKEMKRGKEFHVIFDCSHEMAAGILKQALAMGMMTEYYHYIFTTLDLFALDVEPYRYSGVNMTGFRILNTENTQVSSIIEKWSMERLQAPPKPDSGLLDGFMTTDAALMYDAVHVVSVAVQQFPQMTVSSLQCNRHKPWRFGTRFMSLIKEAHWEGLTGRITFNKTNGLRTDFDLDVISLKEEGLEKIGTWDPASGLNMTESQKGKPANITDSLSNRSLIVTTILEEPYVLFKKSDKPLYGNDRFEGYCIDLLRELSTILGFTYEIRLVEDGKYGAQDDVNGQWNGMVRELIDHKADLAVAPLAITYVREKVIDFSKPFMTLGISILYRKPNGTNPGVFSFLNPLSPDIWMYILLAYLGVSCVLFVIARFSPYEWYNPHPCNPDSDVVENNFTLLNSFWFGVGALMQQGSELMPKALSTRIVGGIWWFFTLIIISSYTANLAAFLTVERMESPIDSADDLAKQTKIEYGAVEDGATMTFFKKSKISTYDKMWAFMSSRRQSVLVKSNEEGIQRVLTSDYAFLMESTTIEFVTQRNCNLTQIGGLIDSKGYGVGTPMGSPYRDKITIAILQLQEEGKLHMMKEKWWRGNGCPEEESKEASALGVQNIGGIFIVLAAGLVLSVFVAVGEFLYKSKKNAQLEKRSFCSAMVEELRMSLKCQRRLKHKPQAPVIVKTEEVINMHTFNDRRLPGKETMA

[5] = target: Glutamate receptor ionotropic, kainate 3 (Rattus norvegicus, UniProt P42264); assay: Displacement of [3H]SYM2081 from recombinant homomeric rat GluK3 receptor expressed in baculovirus infected Sf9 insect cell membranes
Sequence of Glutamate receptor ionotropic, kainate 3 (P42264 whole entry): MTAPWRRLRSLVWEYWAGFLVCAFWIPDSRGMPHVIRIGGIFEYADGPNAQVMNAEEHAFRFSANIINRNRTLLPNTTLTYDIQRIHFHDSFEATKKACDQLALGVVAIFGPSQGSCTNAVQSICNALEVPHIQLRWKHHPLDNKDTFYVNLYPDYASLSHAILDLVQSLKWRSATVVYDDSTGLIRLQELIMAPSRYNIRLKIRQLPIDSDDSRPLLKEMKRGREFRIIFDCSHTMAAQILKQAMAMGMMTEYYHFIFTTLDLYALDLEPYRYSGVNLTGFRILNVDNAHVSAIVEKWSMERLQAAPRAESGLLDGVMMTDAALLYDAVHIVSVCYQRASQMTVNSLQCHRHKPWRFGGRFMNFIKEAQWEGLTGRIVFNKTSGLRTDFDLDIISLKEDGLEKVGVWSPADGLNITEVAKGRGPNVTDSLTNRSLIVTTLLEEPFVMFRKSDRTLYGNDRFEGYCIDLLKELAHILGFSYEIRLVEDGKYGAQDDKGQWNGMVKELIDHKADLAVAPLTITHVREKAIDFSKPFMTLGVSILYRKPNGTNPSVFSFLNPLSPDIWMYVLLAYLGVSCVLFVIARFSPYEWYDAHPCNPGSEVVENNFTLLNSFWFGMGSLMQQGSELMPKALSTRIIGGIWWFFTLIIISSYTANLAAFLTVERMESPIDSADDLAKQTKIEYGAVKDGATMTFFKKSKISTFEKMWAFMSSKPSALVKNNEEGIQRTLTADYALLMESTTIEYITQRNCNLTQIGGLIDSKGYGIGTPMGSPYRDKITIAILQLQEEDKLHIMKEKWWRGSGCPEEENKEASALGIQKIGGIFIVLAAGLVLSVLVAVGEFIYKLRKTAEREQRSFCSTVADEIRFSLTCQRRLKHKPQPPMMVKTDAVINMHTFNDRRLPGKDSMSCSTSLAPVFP

[6] = species on record: Rattus norvegicus; assay: Selectivity ratio of Ki for recombinant homomeric rat GluK3 expressed in Sf9 insect cells to Ki for recombinant homomeric rat GluA2 expressed in Sf9 insect cells
[7] = system: Rattus norvegicus; assay: Analgesic activity in Wistar Han rat assessed as inhibition of formalin-induced pain by measuring flexing duration in early phase at 2 mg/kg, ip administered 30 mins prior to formalin injection measured for first 15 mins after formalin injection; type: functional, organism-based
[8] = system: Rattus norvegicus; assay: Analgesic activity in Wistar Han rat assessed as inhibition of formalin-induced pain by measuring time spent licking injected paw in early phase at 2 mg/kg, ip administered 30 mins prior to formalin injection measured for first 15 mins after formalin injection; type: functional, organism-based
[9] = system: Rattus norvegicus; assay: Analgesic activity in Wistar Han rat assessed as inhibition of formalin-induced pain by measuring paw-jerk frequency in early phase at 2 mg/kg, ip administered 30 mins prior to formalin injection measured for first 15 mins after formalin injection; type: functional, organism-based
[10] = system: Rattus norvegicus; assay: Analgesic activity in Wistar Han rat assessed as inhibition of formalin-induced pain by measuring locomotor activities at 2 mg/kg, ip administered 30 mins prior to formalin injection measured after 30 mins by formalin test; type: functional, organism-based
[11] = system: Rattus norvegicus; assay: Analgesic activity in Wistar Han rat assessed as inhibition of formalin-induced pain by measuring paw-jerk frequency in early phase at 2 mg/kg, ip administered 30 mins prior to formalin injection measured for 15 to 60 mins after formalin injection; type: functional, organism-based
[12] = Permeability of compound in rat brain at 100 uM perfused for 60 secs by LC-MS analysis; type: ADME, tissue-based; conditions: not told, other: brain perfusion, read-out: permeability
[13] = system: Rattus norvegicus; assay: Analgesic activity in Wistar Han rat assessed as inhibition of formalin-induced pain by measuring flexing duration in late phase at 2 mg/kg, ip administered 30 mins prior to formalin injection measured for 15 to 60 mins after formalin injection
[14] = system: Rattus norvegicus; assay: Analgesic activity in Wistar Han rat assessed as inhibition of formalin-induced pain by measuring time spent licking injected paw in late phase at 2 mg/kg, ip administered 30 mins prior to formalin injection measured for 15 to 60 mins after formalin injection
[15] = system: Rattus norvegicus; assay: Analgesic activity in Wistar Han rat assessed as inhibition of formalin-induced pain by measuring locomotor activities at 2 mg/kg, ip administered 30 mins prior to formalin injection measured after 45 mins by formalin test; type: functional, organism-based

Structure (SMILES) | Ki [1] | Ratio Ki [2] | Ki [3] | Ki [4] | Ki [5] | Ratio Ki [6] | Activity [7] | Activity [8] | Activity [9] | Activity [10] | Activity [11] | Papp at 1 min, 100 µM [12] | Activity [13] | Activity [14] | Activity [15]
N[C@@H](Cn1c2c(c(=O)[nH]c1=O)CNC2)C(=O)O | 2.37 µM | 21 | 0.869 µM | > 1000 µM | 18.1 µM | 8 |  |  |  |  |  |  |  |  | 
N[C@@H](Cn1c(=O)n(Cc2nnc(O)o2)c(=O)c2cscc21)C(=O)O | > 100 µM | > 3 | 36 µM | > 1000 µM | 100 µM |  |  |  |  |  |  |  |  |  | 
N[C@@H](Cn1c2c(c(=O)[nH]c1=O)CCC2)C(=O)O |  |  |  | > 1000 µM |  |  |  |  |  |  |  |  |  |  | 
N[C@@H](Cn1c(=O)n(Cc2ccsc2C(=O)O)c(=O)c2cscc21)C(=O)O |  |  |  |  |  |  | Active | Active | Active | Active | Active | 0.59 ×10⁻⁶ cm/s | Active | Active | 
N[C@@H](Cn1c2c(c(=O)[nH]c1=O)COC2)C(=O)O |  |  | 0.586 µM | > 1000 µM | 111 µM |  |  |  |  |  |  |  |  |  | 
CN1Cc2c(n(C[C@H](N)C(=O)O)c(=O)[nH]c2=O)C1 | 1.99 µM | 6 | 0.356 µM | > 1000 µM | 2.15 µM | 1 |  |  |  |  |  |  |  |  | 
N[C@@H](Cn1c(=O)[nH]c(=O)c2cscc21)C(=O)O |  |  |  |  |  |  | Active | Active | Active | Active | Active |  | Active | Active | Active
